PubChem BioAssay AID1340 (NMMLSC, 2008)

Target: Ras-related C3 botulinum toxin substrate 1 (Homo sapiens) (UniProt P63000)
Assay: inhibition of wildtype Rac1 nucleotide loading – biochemical, multiplex bead flow cytometry, dose response (AID 1340)
Conditions: GST-Rac1 beads, Bodipy-FL-GTP binding

Row | SMILES | EC50 [µM]
1 | NC(=S)N=Nc1c(O)[nH]c2ccc(F)cc12 | 3.46
2 | COc1ccc(C(=O)/C=C/Nc2ccc(S(=O)(=O)Nc3nc(C)cc(C)n3)cc2)cc1OC | 3.12
3 | COc1cc(/C=N/Nc2nnc3c(n2)[nH]c2ccccc23)ccc1O | 0.634
